Converted amounts (≈) assume the structure as drawn.
Legend:
Format in all cases: functional, cell-based
A549 = assay: Cytotoxicity against human A549 cells by MTT assay
MCF7 = assay: Cytotoxicity against human MCF7 cells by MTT assay
KB = assay: Cytotoxicity against human KB cells by MTT assay

Structure (SMILES) | IC50 (A549) [µg/mL] | IC50 (MCF7) [µg/mL] | IC50 (KB) [µg/mL]
C=C1C(=O)O[C@]2(C)CC[C@@H]1C[C@@H](O)[C@@](C)(O)CC/C=C(\C)CC[C@@H]2O [CAPILLOLIDE] | 0.5 (≈ 1.42 µM) | – | –
C/C1=C\[C@@H]2[C@H](CC[C@H](C)CC(=O)[C@@H]3O[C@]3(C)/C=C/C1=O)C2(C)C [MICROCLAVATIN] | – | 20 (≈ 63.2 µM) | 5 (≈ 15.8 µM)
